Laboratory results: patent publication US20240130368A1, “HERBICIDAL COMPOSITION” (Nippon Soda Co., Ltd., priority 2021, published 2024)
Read-outs that look alike come from different tables or passages of the source.

Columns and labels:
Assay type in all cases: in vivo
Ambrosia artemisiifolia = assay: Test Example 1: seeds on filter paper moistened with chemical solution, herbicidal effect visually evaluated; settings: visually evaluated 6 days after treatment; for pest or weed control at 0.2 ppm: amount of active ingredient 0.2 ppm
Method: As the compound (1), 1-methoxy-3-methyl-6-(1,1-dioxido-8-(trifluoromethyl)thiochroman-5-yl)-7-oxa-3,4-diazabicyclo[4.1.0]hept-4-en-2-one (Compound (I-3)) was used.
(§1) The compound (I) or compound (II) was prepared into a 5% emulsion using DMF (containing 1.5% Tween) and diluted with water to a prescribed dosage concentration. Commercially available preparations were dissolved in water and adjusted to a prescribed dosage concentration.
(§2) Seeds were soaked in 0.6% sodium hypochlorite for a predetermined time for surface sterilization and washed with water for use (seed disinfection). Seeds of Ambrosia artemisiifolia were used for the test.
(§3) Filter paper was placed on a cup (diameter: 10 cm, height: 4 cm) with a lid and moistened with 8 ml of chemical solution, and seeds were sown thereon, and after covering with a lid, grown in a constant temperature room.
(§4) The herbicidal effects were visually evaluated, 6 days after the treatment, as the herbicidal effect (%), by comparing with a state of an untreated group using a total of 21 scores of withering index from 0 to 20 (0: mortality rate equivalent to that of the untreated group, 20: mortality rate of 100%).
(§5) In addition, the expected values of the herbicidal effects were calculated from the herbicidal effects in a case where the compound (I) alone was applied and the herbicidal effects in a case where the compound (II) alone was applied by using the Colby's formula (Colby, S. R., Calculating synergistic and antagonistic responses of herbicide combinations, Weeds, 15, pp. 20-22 (1967)).
(§6) M indicates an herbicidal effect (%) in the application of the compound (I) alone, N indicates an herbicidal effect (%) in the application of the compound (II) alone, and E indicates an expected value (%) of the herbicidal effect in the combined application of the compound (T) and the compound (TT). When the actual measured value (%) of the herbicidal effect in the combined application of the compound (I) and the compound (II) is greater than the expected value E, it can be regarded that the combined application of the compound (I) and the compound (II) has a synergistic effect.

Ipomoea hederacea [1] = assay: Test Example 4: foliar spraying treatment, herbicidal effect from above ground weight; settings: 3 weeks after spraying
Method: (§7) POA allylphenyl ether (4.1 parts by weight), POE-POP glycol (1 part by weight), POE sorbitan laurate (0.8 parts by weight), glycerin (2.6 parts by weight), dimethylformamide (65.9 parts by weight), N-methylpyrrolidone (5.1 parts by weight), cyclohexanone (15.4 parts by weight), and aromatic hydrocarbons (5.1 parts by weight) were mixed and dissolved to prepare an emulsion. The active ingredient (4 mg) of the composition of the present invention was dissolved in this emulsion (100 μL) to prepare a test emulsion. It should be noted that POA means “polyoxyalkylene”, POE means “polyoxyethylene”, and POP means “polyoxypropylene”.
(§8) A 300 cm^2 pot was filled with soil, and seeds of Zea mays, Setaria faberi, Sorghum halepense, Brachiaria platyphylla, Amaranthus palmeri, Senna obtusifolia and Ipomoea hederacea were sown into the surface layer, and then grown in a greenhouse after being covered lightly with soil. When each plant grew to a plant height of 7 to 11 cm, it was used for the test. The test emulsion was diluted so that the amount of the active ingredient became a predetermined amount, and sprayed on the foliage with a small sprayer at a spray water volume of 250 L per hectare.
(§9) For the evaluation of the herbicidal effects, the above ground weights of weeds in the untreated and treated areas were measured for each weed 3 weeks after spraying treatment, and the herbicidal effect (%) was calculated by the following calculation formula.
as §5
(§10) M indicates an herbicidal effect (%) in the application of the compound (1) alone, N indicates an herbicidal effect (%) in the application of the compound (II) alone, and E indicates an expected value (%) of the herbicidal effect in the combined application of the compound (I) and the compound (II). When the actual measured value (%) of the herbicidal effect in the combined application of the compound (I) and the compound (II) is greater than the expected value E, it can be regarded that the combined application of the compound (1) and the compound (II) has a synergistic effect.
(§11) Herbicidal effect (%)=[(above ground weight of weeds in untreated area)−(above ground weight of weeds in treated area)/(above ground weight of weeds in untreated area)]×100
(§12) The following grass species were used as grass species to be controlled [scientific names]. • Giant foxtail [Setaria faberi] • Johnson grass [Sorghum halepense] • Broadleaf signalgrass [Brachiaria platyphylla] • Palmer amaranth [Amaranthus palmeri] • Sicklepod [Senna obtusifolia] • Morning glory [Ipomoea hederacea]

Sorghum halepense = assay: as above; settings: 3 weeks after spraying
Method: as §7, §8, §9, §5, §10, §11, §12

Senna obtusifolia = assay: as above; settings: 3 weeks after spraying
Method: as §7, §8, §9, §5, §10, §11, §12

Amaranthus palmeri = assay: as above; settings: 3 weeks after spraying
Method: as §7, §8, §9, §5, §10, §11, §12

Setaria faberi = assay: as above; settings: 3 weeks after spraying
Method: as §7, §8, §9, §5, §10, §11, §12

Brachiaria platyphylla = assay: as above; settings: 3 weeks after spraying
Method: as §7, §8, §9, §5, §10, §11, §12

Ipomoea hederacea [2] = assay: Test Example 6: foliar spraying treatment, herbicidal effect from above ground weight
Method: as §7
(§13) A test emulsion was prepared in the same manner as in Test Example 4.
as §8, with “mays” for “mays, Setaria faberi, Sorghum halepense, Brachiaria platyphylla, Amaranthus palmeri, Senna obtusifolia”, “9” for “11”, “cm,” for “cm, it was used for”, “above” for “test. The”
(§14) Test Examples 6-1 and 6-3 were evaluated in the same manner as in Test Example 4.
(§15) The expected values of the herbicidal effects in Test Example 6-2 were calculated using the following Colby's formula (Colby, S. R., Calculating synergistic and antagonistic responses of herbicide combinations, Weeds, 15, pp. 20-22 (1967)).
(§16) X indicates an herbicidal effect (%) by applying the compound (1) alone, Y and Z each indicate an herbicidal effect (%) by applying one of the two types of the compounds (II) alone, and E indicates an expected value (%) of the herbicidal effect by applying combinations of the compound (I) and two types of the compounds (II).
(§17) When the actual measured value (%) of the herbicidal effect by the combined application of the compound (I) and two types of the compounds (11) is greater than the expected value E, it can be regarded that the combined application of the compound (1) and two types of the compounds (II) has a synergistic effect.
The following grass species were used as grass species to be controlled [scientific names]. • Morning glory [Ipomoea hederacea]

Zea mays [3] = assay: Test Example 4: foliar spraying treatment, herbicidal effect from above ground weight (useful plant); settings: 3 weeks after spraying
Method: as §7, §8, §9
as §5, with “(1967)). […]” for “(1967)).”

Zea mays [4] = assay: Test Example 6: foliar spraying treatment, herbicidal effect from above ground weight (useful plant)
Method: as §7, §13
as §8, with “mays” for “mays, Setaria faberi, Sorghum halepense, Brachiaria platyphylla, Amaranthus palmeri, Senna obtusifolia”, “9” for “11”, “cm,” for “cm, it was used for”, “above” for “test. The”
as §14, §15, §16, §17
The following plants were used as useful plants [scientific names]. • Corn for animal feed [Zea mays]

Abutilon theophrasti = assay: Test Example 3: seeds on filter paper moistened with chemical solution, herbicidal effect visually evaluated; settings: 6 days after the treatment
Method: as §1, §2, §3, §4, §5, §6
The herbicidal effects were evaluated by the same method as in Test Example 1 except that the seeds used in the test were changed from Ambrosia artemisiifolia to Abutilon theophrasti.

Triticum aestivum = assay: Test Example 5: spraying on the soil surface, herbicidal effect from above ground weight (useful plant); settings: Flufenacet alone, 250 gai/ha, sprayed on the soil surface, seven weeks after spraying
Method: as §7, §9, §11, §13
(§18) A 300 cm^2 pot was filled with soil, and seeds of Triticum aestivum, multidrug-resistant Alopecurus myosuroides, Lolium multiflorum and Avena fatua were sown into the surface layer, and covered with soil to a thickness of 0.5 to 1 cm. The above test emulsion was diluted so that the amount of the active ingredient became a predetermined amount, and sprayed on the soil surface at a spray water volume of 250 L per hectare, followed by growth in an outdoor environment.
(§19) Seven weeks after spraying, the evaluation was carried out in the same manner as in Test Example 4, except that the above ground weights of weeds in the untreated and treated areas were measured for each weed.
The following plants were used as useful plants [scientific names]. • Wheat [Triticum aestivum]

Lolium multiflorum = assay: Test Example 5: spraying on the soil surface, herbicidal effect from above ground weight; settings: Flufenacet alone, 250 gai/ha, sprayed on the soil surface, seven weeks after spraying
Method: as §7, §9, §11, §13, §18, §19
(§20) The following grass species were used as grass species to be controlled [scientific names]. • Blackgrass * [Alopecurus myosuroides] • Italian ryegrass [Lolium multiflorum] • Wild oat [Avena fatua]

[5] = system: multidrug-resistant Alopecurus myosuroides; assay: as above; settings: Flufenacet alone, 250 gai/ha; sprayed on the soil surface; seven weeks after spraying; Alopecurus myosuroides multidrug-resistant strain
Method: as §7, §9, §11, §13, §18, §19, §20

Avena fatua = assay: as above; settings: Flufenacet alone, 250 gai/ha, sprayed on the soil surface, seven weeks after spraying
Method: as §7, §9, §11, §13, §18, §19, §20

Digitaria ciliaris = assay: Test Example 2: seeds on filter paper moistened with chemical solution, herbicidal effect visually evaluated; settings: Pinoxaden alone, 0.2 ppm, 6 days after the treatment
[6] = Ambrosia artemisiifolia, 144 h, applied alone, amount of active ingredient 0.8 ppm, read-out: Herbicidal effect (%)

## CCOCN(C(=O)CCl)c1c(C)cccc1CC [Acetochlor]
Ambrosia artemisiifolia; [6]
  pest or weed control at 0.8 ppm: 40%
Ipomoea hederacea [1]; Acetochlor alone, 1,000 gai/ha
  Actual measured value of herbicidal effect: 20%
Sorghum halepense; Acetochlor alone, 1,000 gai/ha
  Actual measured value of herbicidal effect: 60%
Senna obtusifolia; Acetochlor alone, 1,000 gai/ha
  Actual measured value of herbicidal effect: 20%
Amaranthus palmeri; Acetochlor alone, 1,000 gai/ha
  Actual measured value of herbicidal effect: 50%
Setaria faberi; Acetochlor alone, 1,000 gai/ha
  Actual measured value of herbicidal effect: 70%
Brachiaria platyphylla; Acetochlor alone, 1,000 gai/ha
  Actual measured value of herbicidal effect: 60%
Ipomoea hederacea [2]; Acetochlor alone, 2,000 gai/ha
  Actual measured value of herbicidal effect: 20%
Zea mays [3]; Acetochlor alone, 1,000 gai/ha
  Actual measured value of herbicidal effect: 0%
Zea mays [4]; Acetochlor alone, 2,000 gai/ha
  Actual measured value of herbicidal effect: 0%

## CCNc1nc(Cl)nc(NC(C)C)n1 [Atrazine]
Ambrosia artemisiifolia; Ambrosia artemisiifolia, 144 h, applied alone, amount of active ingredient 200 ppm
  pest or weed control at 200 ppm: 10%
Ipomoea hederacea [1]; Atrazine alone, 500 gai/ha
  Actual measured value of herbicidal effect: 100%
Sorghum halepense; Atrazine alone, 500 gai/ha
  Actual measured value of herbicidal effect: 0%
Senna obtusifolia; Atrazine alone, 500 gai/ha
  Actual measured value of herbicidal effect: 30%
Amaranthus palmeri; Atrazine alone, 500 gai/ha
  Actual measured value of herbicidal effect: 100%
Setaria faberi; Atrazine alone, 500 gai/ha
  Actual measured value of herbicidal effect: 100%
Brachiaria platyphylla; Atrazine alone, 500 gai/ha
  Actual measured value of herbicidal effect: 0%
Zea mays [3]; Atrazine alone, 500 gai/ha
  Actual measured value of herbicidal effect: 0%

## O=C(O)c1nc(Cl)ccc1Cl [Clopyralid]
Ambrosia artemisiifolia; Ambrosia artemisiifolia, 144 h, applied alone, amount of active ingredient 12.5 ppm, read-out: Herbicidal effect (%)
  pest or weed control at 12.5 ppm: 90%
Ipomoea hederacea [2]; Clopyralid alone, 125 gai/ha
  Actual measured value of herbicidal effect: 30%
Zea mays [4]; Clopyralid alone, 125 gai/ha
  Actual measured value of herbicidal effect: 0%

## COc1nn(C(=O)[N-]S(=O)(=O)c2ccccc2OC(F)(F)F)c(=O)n1C.[Na+] [Flucarbazone-Sodium, reference compound]
Abutilon theophrasti; Flucarbazone-Sodium alone, 3.1 ppm
  Herbicidal effect: 20%

## CC(C)N(C(=O)COc1nnc(C(F)(F)F)s1)c1ccc(F)cc1 [Flufenacet, reference compound]
Triticum aestivum
  Actual measured value of herbicidal effect: 30%
Ambrosia artemisiifolia; Ambrosia artemisiifolia, 144 h, compound applied alone, read-out: Herbicidal effect (%)
  pest or weed control at 0.2 ppm: 20%
Lolium multiflorum
  Actual measured value of herbicidal effect: 70%
[5]
  Actual measured value of herbicidal effect: 40%
Avena fatua
  Actual measured value of herbicidal effect: 60%

## CCc1cc(C)cc(CC)c1-c1c(OC(=O)C(C)(C)C)n2n(c1=O)CCOCC2 [Pinoxaden, reference compound]
Digitaria ciliaris
  Herbicidal effect: 10%

## Cn1nc(C(F)(F)F)c(CS(=O)(=O)C2=NOC(C)(C)C2)c1OC(F)F [Pyroxasulfone]
Ambrosia artemisiifolia; Ambrosia artemisiifolia, 144 h, applied alone, read-out: Herbicidal effect (%)
  pest or weed control at 0.2 ppm: 30%
Ipomoea hederacea [2]; Pyroxasulfone alone, 94 gai/ha
  Actual measured value of herbicidal effect: 60%
Zea mays [4]; Pyroxasulfone alone, 94 gai/ha
  Actual measured value of herbicidal effect: 0%

## COC(=O)c1sccc1S(=O)(=O)NC(=O)Nc1nc(C)nc(OC)n1 [Thifensulfuron-methyl, reference compound]
Abutilon theophrasti; Thifensulfuron-methyl alone, 0.8 ppm
  Herbicidal effect: 10%

## CCCN(CCC)c1c([N+](=O)[O-])cc(C(F)(F)F)cc1[N+](=O)[O-] [Trifluralin]
Ambrosia artemisiifolia; [6]
  pest or weed control at 0.8 ppm: 10%

## S-metolachlor
Ambrosia artemisiifolia; compound applied alone, amount of active ingredient 0.8 ppm
  Herbicidal effect (%): 20%
